Experimental data reported in the supplement of paper PMC10307832.

Columns and labels:
Experiment in all cases: relative viability (nuclei count vs DMSO), 5 days (fraction); higher = more cells survive
NCI-H1650 = system: NCI-H1650
Outline: (§1)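 Relative viability was taken as the ratio of nuclei in treated wells to nuclei in vehicle wells. Lung cancer cell lines in 1536-well plates received compounds by pin tool one day after seeding, either one drug alone or a fixed anchor-drug dose plus five library-drug doses (not always all listed) in √10 steps. Nuclei were counted on 4× images after 5 days of treatment, and values are medians of duplicate plates.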

UMC-11 = system: UMC-11
Outline: as §1

NCI-H647 = system: NCI-H647
Outline: as §1

ABC-1 = system: ABC-1
Outline: as §1

HCC-827 = system: HCC-827
Outline: as §1

NCI-H727 = system: NCI-H727
Outline: as §1

NCI-H2087 = system: NCI-H2087
Outline: as §1

NCI-H661 = system: NCI-H661
Outline: as §1

NCI-H1651 = system: NCI-H1651
Outline: as §1

NCI-H1975 = system: NCI-H1975
Outline: as §1

NCI-H1437 = system: NCI-H1437
Outline: as §1

EKVX = system: EKVX
Outline: as §1

NCI-H520 = system: NCI-H520
Outline: as §1

EPLC-272H = system: EPLC-272H
Outline: as §1

NCI-H1792 = system: NCI-H1792
Outline: as §1

201T = system: 201T
Outline: as §1

H3255 = system: H3255
Outline: as §1

COR-L 105 = system: COR-L 105
Outline: as §1

COR-L23 = system: COR-L23
Outline: as §1

HCC-44 = system: HCC-44
Outline: as §1

LCLC-103H = system: LCLC-103H
Outline: as §1

HCC-15 = system: HCC-15
Outline: as §1

For Cc1cnc(-c2cnc(NCCNc3ccc(C#N)cn3)nc2-c2ccc(Cl)cc2Cl)[nH]1 + CC(C)C[C@H](NC(=O)[C@H](Cc1ccccc1)NC(=O)c1cnccn1)B(O)O [Bortezomib] (partner 0.002 µM), the relative viability (NCI-H1650; first compound 0.08 µM) was 0.207, the relative viability (NCI-H1650; first compound 0.253 µM) was 0.214 and the relative viability (NCI-H1650; first compound 0.8 µM) was 0.24. It also gave a relative viability (NCI-H1650; first compound 2.53 µM) of 0.207, a relative viability (UMC-11; first compound 0.08 µM) of 0.759 and a relative viability (UMC-11; first compound 0.253 µM) of 0.595. For the same molecule, the relative viability (UMC-11; first compound 0.8 µM) was 0.516, the relative viability (UMC-11; first compound 2.53 µM) was 0.659 and the relative viability (NCI-H647; first compound 0.08 µM) was 0.943. The relative viability (NCI-H647; first compound 0.253 µM) was 0.836, the relative viability (NCI-H647; first compound 0.8 µM) was 1.05 and the relative viability (NCI-H647; first compound 2.53 µM) was 0.994. For the same molecule, the relative viability (ABC-1; first compound 0.08 µM) was 0.343, the relative viability (ABC-1; first compound 0.253 µM) was 0.257 and the relative viability (ABC-1; first compound 0.8 µM) was 0.347. For the same molecule, the relative viability (ABC-1; first compound 2.53 µM) was 0.252, the relative viability (HCC-827; first compound 0.08 µM) was 1.01 and the relative viability (HCC-827; first compound 0.8 µM) was 0.877. The relative viability (HCC-827; first compound 2.53 µM) was 1.07, the relative viability (NCI-H727; first compound 0.08 µM) was 0.877 and the relative viability (NCI-H727; first compound 0.253 µM) was 0.808. The relative viability (NCI-H727; first compound 0.8 µM) was 0.982, the relative viability (NCI-H727; first compound 2.53 µM) was 0.889 and the relative viability (NCI-H2087; first compound 0.08 µM) was 0.997. The relative viability (NCI-H2087; first compound 0.253 µM) was 0.683, the relative viability (NCI-H2087; first compound 0.8 µM) was 0.771 and the relative viability (NCI-H2087; first compound 2.53 µM) was 0.808. It also gave a relative viability (NCI-H661; first compound 0.08 µM) of 0.951, a relative viability (NCI-H661; first compound 0.253 µM) of 0.789 and a relative viability (NCI-H661; first compound 0.8 µM) of 0.836. It also gave a relative viability (NCI-H661; first compound 2.53 µM) of 0.719, a relative viability (NCI-H1651; first compound 0.08 µM) of 0.965 and a relative viability (NCI-H1651; first compound 0.253 µM) of 0.883. For the same molecule, the relative viability (NCI-H1651; first compound 0.8 µM) was 0.937, the relative viability (NCI-H1651; first compound 2.53 µM) was 0.92 and the relative viability (NCI-H1975; first compound 0.08 µM) was 0.412. It also gave a relative viability (NCI-H1975; first compound 0.253 µM) of 0.391, a relative viability (NCI-H1975; first compound 0.8 µM) of 0.425 and a relative viability (NCI-H1975; first compound 2.53 µM) of 0.328. The relative viability (NCI-H1437; first compound 0.08 µM) was 0.536, the relative viability (NCI-H1437; first compound 0.253 µM) was 0.475 and the relative viability (NCI-H1437; first compound 0.8 µM) was 0.451. For the same molecule, the relative viability (NCI-H1437; first compound 2.53 µM) was 0.472, the relative viability (EKVX; first compound 0.08 µM) was 0.93 and the relative viability (EKVX; first compound 0.253 µM) was 0.948. The relative viability (EKVX; first compound 0.8 µM) was 0.975, the relative viability (EKVX; first compound 2.53 µM) was 0.961 and the relative viability (NCI-H520; first compound 0.08 µM) was 0.72. It also gave a relative viability (NCI-H520; first compound 0.253 µM) of 0.551, a relative viability (NCI-H520; first compound 0.8 µM) of 0.473 and a relative viability (NCI-H520; first compound 2.53 µM) of 0.523. For the same molecule, the relative viability (EPLC-272H; first compound 0.08 µM) was 0.938, the relative viability (EPLC-272H; first compound 0.253 µM) was 0.84 and the relative viability (EPLC-272H; first compound 0.8 µM) was 0.834. The relative viability (EPLC-272H; first compound 2.53 µM) was 0.903, the relative viability (NCI-H1792; first compound 0.08 µM) was 0.89 and the relative viability (NCI-H1792; first compound 0.253 µM) was 0.657. For the same molecule, the relative viability (NCI-H1792; first compound 0.8 µM) was 0.876, the relative viability (NCI-H1792; first compound 2.53 µM) was 0.915 and the relative viability (201T; first compound 0.08 µM) was 1.12. The relative viability (201T; first compound 0.253 µM) was 0.973, the relative viability (201T; first compound 0.8 µM) was 1.14 and the relative viability (201T; first compound 2.53 µM) was 1.1. For the same molecule, the relative viability (H3255; first compound 0.08 µM) was 0.91, the relative viability (H3255; first compound 0.253 µM) was 0.563 and the relative viability (H3255; first compound 0.8 µM) was 0.95. The relative viability (H3255; first compound 2.53 µM) was 0.656, the relative viability (COR-L 105; first compound 0.08 µM) was 0.898 and the relative viability (COR-L 105; first compound 0.253 µM) was 0.754. For the same molecule, the relative viability (COR-L 105; first compound 0.8 µM) was 0.62, the relative viability (COR-L 105; first compound 2.53 µM) was 0.445 and the relative viability (COR-L23; first compound 0.08 µM) was 1.04. The relative viability (COR-L23; first compound 0.253 µM) was 0.997, the relative viability (COR-L23; first compound 0.8 µM) was 1.14 and the relative viability (COR-L23; first compound 2.53 µM) was 0.943. It also gave a relative viability (HCC-44; first compound 0.08 µM) of 0.851, a relative viability (HCC-44; first compound 0.253 µM) of 0.855 and a relative viability (HCC-44; first compound 0.8 µM) of 0.91. It also gave a relative viability (HCC-44; first compound 2.53 µM) of 0.932, a relative viability (LCLC-103H; first compound 0.08 µM) of 1.08 and a relative viability (LCLC-103H; first compound 0.253 µM) of 1.04. The relative viability (LCLC-103H; first compound 0.8 µM) was 0.983, the relative viability (LCLC-103H; first compound 2.53 µM) was 0.912 and the relative viability (HCC-15; first compound 0.08 µM) was 1.01. The relative viability (HCC-15; first compound 0.253 µM) was 0.575, the relative viability (HCC-15; first compound 0.8 µM) was 1 and the relative viability (HCC-15; first compound 2.53 µM) was 0.969.
